Patent US20240408169A1 (priority 2023, published 2024)
Where two headings read alike, the source gives them in different places. *1 amine or outer side, *2 acyl side, *3 side chain or, on linkers, in order; H or OH if unused. Where a SMILES comes first, the peptide text is derived from it. Bridges are numbered along the chain shown (N, C = ends). [ ]: non-standard residue; d: D form. The star is where a group is joined. NMePhe(2-(4-MorPh),5-Cl) = CN[C@@H](Cc1cc(Cl)ccc1-c1ccc(N2CCOCC2)cc1)C(=O)O; X101 = CN([C@@H](Cc1cc(Cl)ccc1-c1cnn(C2CS(=O)(=O)C2)c1)C(=O)[*:2])[*:1]; X72 = CN([C@@H](Cc1cc(Cl)ccc1-c1cnn(C2CCS(=O)(=O)C2)c1)C(=O)[*:2])[*:1]; X42 = CN([C@@H](Cc1cc(Cl)ccc1-c1cnn(S(=O)(=O)C2CC2)c1)C(=O)[*:2])[*:1]; X13 = CN([C@@H](Cc1cc(Cl)ccc1-c1cnn(CCS(C)(=O)=O)c1)C(=O)[*:2])[*:1]; X46 = CN([C@@H](Cc1cc(Cl)ccc1-c1ccc(S(C)(=O)=O)cc1)C(=O)[*:2])[*:1]; X55 = CN([C@@H](Cc1cc(Cl)ccc1-c1cnn(CCN2CCOCC2)c1)C(=O)[*:2])[*:1]; X16 = CN([C@@H](Cc1cc(Cl)ccc1-c1cnc2c(cnn2C)c1)C(=O)[*:2])[*:1]; X30 = CN([C@@H](Cc1cc(Cl)ccc1-c1ccc2c(c1)ncn2C)C(=O)[*:2])[*:1]; NMehhhLys(Me) = CN([C@@H](CCCCCCCN(C)[*:3])C(=O)[*:2])[*:1]; X64 = CN([C@@H](Cc1cc(Cl)ccc1OC1(C)CC1)C(=O)[*:2])[*:1]; X66 = CN([C@@H](Cc1cc(Cl)ccc1-c1cccnc1)C(=O)[*:2])[*:1]; NMe(hhhLys) = CN([C@@H](CCCCCCCN[*:3])C(=O)[*:2])[*:1]; NMe3Pal(2-OMe,5-Cl) = CN[C@@H](Cc1cc(Cl)cnc1OC)C(=O)O; Oxane2carbonyl(2R-CF3) = O=C([C@@]1(C(F)(F)F)CCCCO1)*; cBuCO(3,3-F2-1-CF3) = O=C(C1(C(F)(F)F)CC(F)(F)C1)*; X4 = Cc1ccc(Cl)cc1C[C@@H](C(=O)[*:2])N(C)[*:1]; Pro(trans-4-F) = O=C(O)[C@@H]1C[C@@H](F)CN1; Gly(cPr) = N[C@H](C(=O)O)C1CC1

Legend:
[1] = molecular target: T1, CyclinE1/CDK2 (Homo sapiens, UniProt P24864); assay: Fluorescence Polarization (FP) competitive binding assay, Cyclin E1/Cdk2;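 further: readings taken after two-hour equilibration at room temperature in HEPES buffer with NaCl, DTT, NP-40 and BSA, IC50 fitted from eight-concentration serial dilution series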
T1 construct: purchased Eurofins, discovery 14-475

[2] = test system: OVCAR3 cells; assay: MTT proliferation assay, OVCAR3; type: cell-based; conditions: 5 days compound exposure, 1:3 serial dilution starting at 10 μM;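 further: compound given as an 8- or 10-point series, one day after plating, with exposure covering roughly 3-4 cell doublings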
[3] = test system: WI-38 cells; assay: MTT proliferation assay, WI-38; type: cell-based; conditions: 3 days compound exposure, 1:3 serial dilution starting at 10 μM;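 further: Eight- or ten-point dilution series, with exposure length chosen to span about three to four cell doublings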
[4] = test system: NCI-H1048 cells; assay: MTT proliferation assay, NCI-H1048; type: cell-based; conditions: 5 days compound exposure, 1:3 serial dilution starting at 10 μM;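 further: Dose-response in 96-well plates over 8 or 10 concentration points, with exposure spanning 3-4 cell doublings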
[5] = molecular target: T2, CyclinB1/CDK1 (Homo sapiens, UniProt P14635); assay: Fluorescence Polarization (FP) competitive binding assay, Cyclin B1/Cdk1;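 further: fluorescence polarization read after equilibration at room temperature, with IC50 taken from serially diluted dose-response curves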
T2 construct: purchased Eurofins, discovery 14-450

[6] = molecular target: T3, CyclinA2/CDK2 (Homo sapiens, UniProt P20248); assay: Fluorescence Polarization (FP) competitive binding assay, Cyclin A2/Cdk2;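 further: plates equilibrated two hours at room temperature before polarization reading, IC50 fitted from eight-concentration compound titration curves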
T3 construct: purchased CRELUX Protein Services

[7] = read-out: Cyclin B FP IC50; 10 nM Cyclin B1/Cdk1, 2 nM FAM probe; average of 2-3 independent experiments
[8] = 10 nM Cyclin E1/Cdk2, 2 nM FAM probe, average of 2-3 independent experiments, read-out: Cyclin E FP IC50
[9] = 10 nM Cyclin B1/Cdk1, 2 nM FAM probe; average of 2-3 independent experiments; read-out: Cyclin B FP IC50
[10] = 8 nM Cyclin A2/Cdk2, 2 nM FAM probe, average of 2-3 independent experiments, read-out: Cyclin A FP IC50

| SMILES | IC50 [1] [nM] | GI50 [2] [nM] | GI50 [3] [nM] | GI50 [4] [nM] | IC50 [5, 7] [nM] | IC50 [6] [nM] | IC50 [1, 8] [nM] | IC50 [5, 9] [nM] | IC50 [6, 10] [nM] |
| --- | --- | --- | --- | --- | --- | --- | --- | --- | --- |
| CC(C)C[C@@H]1NC(=O)[C@@H](N(C)C(=O)[C@@H](NC(=O)[C@@H]2C[C@@H](F)CN2C(=O)C2(C(F)(F)F)CC(F)(F)C2)C2CC2)CCCCCCCN(C)C(=O)[C@H](Cc2cc(Cl)ccc2-c2cnc3c(cnn3C)c2)N(C)C1=O [Example 250] ({cBuCO(3,3-F2-1-CF3)}-[Pro(trans-4-F)][Gly(cPr)][NMehhhLys(Me)]L[X16]; lactam 3-C) | 1620 | 30 | 5550 | 30 | 20 | 30 |  |  |  |
| CC(C)C[C@@H]1NC(=O)[C@@H](N(C)C(=O)[C@@H](NC(=O)[C@@H]2C[C@@H](F)CN2C(=O)C2(C(F)(F)F)CC(F)(F)C2)C2CC2)CCCCCCCN(C)C(=O)[C@H](Cc2cc(Cl)ccc2-c2ccc3c(c2)ncn3C)N(C)C1=O [Example 251] ({cBuCO(3,3-F2-1-CF3)}-[Pro(trans-4-F)][Gly(cPr)][NMehhhLys(Me)]L[X30]; lactam 3-C) | 930 | 10 | 13900 | 10 | 20 | 40 |  |  |  |
| CC(C)C[C@@H]1NC(=O)[C@@H](N(C)C(=O)[C@@H](NC(=O)[C@@H]2C[C@@H](F)CN2C(=O)C2(C(F)(F)F)CC(F)(F)C2)C2CC2)CCCCCCCN(C)C(=O)[C@H](Cc2cc(Cl)ccc2-c2cnn(C3CCS(=O)(=O)C3)c2)N(C)C1=O (stereo partly drawn) [Example 253] ({cBuCO(3,3-F2-1-CF3)}-[Pro(trans-4-F)][Gly(cPr)][NMehhhLys(Me)]L[X72]; lactam 3-C) |  | 20 | 9930 | 40 |  |  | 330 | 20 | 20 |
| CC(C)C[C@@H]1NC(=O)[C@@H](N(C)C(=O)[C@@H](NC(=O)[C@@H]2C[C@@H](F)CN2C(=O)C2(C(F)(F)F)CC(F)(F)C2)C2CC2)CCCCCCCN(C)C(=O)[C@H](Cc2cc(Cl)ccc2-c2cnn(C3CS(=O)(=O)C3)c2)N(C)C1=O [Example 255] ({cBuCO(3,3-F2-1-CF3)}-[Pro(trans-4-F)][Gly(cPr)][NMehhhLys(Me)]L[X101]; lactam 3-C) |  | 30 | 15800 | 40 |  |  | 210 | 20 | 20 |
| CC(C)C[C@@H]1NC(=O)[C@@H](N(C)C(=O)[C@@H](NC(=O)[C@@H]2C[C@@H](F)CN2C(=O)C2(C(F)(F)F)CC(F)(F)C2)C2CC2)CCCCCCCN(C)C(=O)[C@H](Cc2cc(Cl)ccc2-c2cnn(CCN3CCOCC3)c2)N(C)C1=O [Example 256] ({cBuCO(3,3-F2-1-CF3)}-[Pro(trans-4-F)][Gly(cPr)][NMehhhLys(Me)]L[X55]; lactam 3-C) |  | 10 | 13200 | 10 |  |  | 480 | 20 | 30 |
| CC(C)C[C@@H]1NC(=O)[C@@H](N(C)C(=O)[C@@H](NC(=O)[C@@H]2C[C@@H](F)CN2C(=O)C2(C(F)(F)F)CC(F)(F)C2)C2CC2)CCCCCCCN(C)C(=O)[C@H](Cc2cc(Cl)ccc2-c2cnn(CCS(C)(=O)=O)c2)N(C)C1=O [Example 257] ({cBuCO(3,3-F2-1-CF3)}-[Pro(trans-4-F)][Gly(cPr)][NMehhhLys(Me)]L[X13]; lactam 3-C) |  | 10 | 13300 | 10 |  |  | 120 | 20 | 20 |
| CC(C)C[C@@H]1NC(=O)[C@@H](N(C)C(=O)[C@@H](NC(=O)[C@@H]2C[C@@H](F)CN2C(=O)C2(C(F)(F)F)CC(F)(F)C2)C2CC2)C/C=C\CCCCN(C)C(=O)[C@H](Cc2cc(Cl)cnc2OC2CC2)N(C)C1=O [Example 258] |  | 70 | 14200 | 70 |  |  | 120 | 20 | 70 |
| CC(C)C[C@@H]1NC(=O)[C@@H](N(C)C(=O)[C@@H](NC(=O)[C@@H]2C[C@@H](F)CN2C(=O)C2(C(F)(F)F)CC(F)(F)C2)C2CC2)CCCCCCCN(C)C(=O)[C@H](Cc2cc(Cl)ccc2OC2(C)CC2)N(C)C1=O [Example 259] ({cBuCO(3,3-F2-1-CF3)}-[Pro(trans-4-F)][Gly(cPr)][NMehhhLys(Me)]L[X64]; lactam 3-C) |  | 110 | 10400 | 110 |  |  | 280 | 20 | 70 |
| CC(C)C[C@@H]1NC(=O)[C@@H](N(C)C(=O)[C@@H](NC(=O)[C@@H]2C[C@@H](F)CN2C(=O)[C@@]2(C(F)(F)F)CCCCO2)C2CC2)CCCCCCCN(C)C(=O)[C@H](Cc2cc(Cl)ccc2OC2(C)CC2)N(C)C1=O [Example 260] ({Oxane2carbonyl(2R-CF3)}-[Pro(trans-4-F)][Gly(cPr)][NMehhhLys(Me)]L[X64]; lactam 3-C) |  | 40 | 6390 | 40 |  |  | 100 | 20 | 50 |
| CC(C)C[C@@H]1NC(=O)[C@@H](N(C)C(=O)[C@@H](NC(=O)[C@@H]2C[C@@H](F)CN2C(=O)C2(C(F)(F)F)CC(F)(F)C2)C2CC2)CCCCCCCN(C)C(=O)[C@H](Cc2cc(Cl)ccc2-c2ccc(N3CCOCC3)cc2)N(C)C1=O [Example 261] ({cBuCO(3,3-F2-1-CF3)}-[Pro(trans-4-F)][Gly(cPr)][NMehhhLys(Me)]L[NMePhe(2-(4-MorPh),5-Cl)]; lactam 3-C) |  | 10 | 14100 | 10 |  |  | 430 | 20 | 20 |
| CC(C)C[C@@H]1NC(=O)[C@@H](N(C)C(=O)[C@@H](NC(=O)[C@@H]2C[C@@H](F)CN2C(=O)C2(C(F)(F)F)CC(F)(F)C2)C2CC2)CCCCCCCN(C)C(=O)[C@H](Cc2cc(Cl)ccc2-c2ccc(S(C)(=O)=O)cc2)N(C)C1=O [Example 262] ({cBuCO(3,3-F2-1-CF3)}-[Pro(trans-4-F)][Gly(cPr)][NMehhhLys(Me)]L[X46]; lactam 3-C) |  | 20 | 16200 | 10 |  |  | 910 | 20 | 20 |
| Cc1ccc(Cl)cc1C[C@H]1C(=O)NCCCCCCC[C@H](N(C)C(=O)[C@@H](NC(=O)[C@@H]2C[C@@H](F)CN2C(=O)C2(C(F)(F)F)CC(F)(F)C2)C2CC2)C(=O)N[C@@H](CC(C)C)C(=O)N1C [Example 270] ({cBuCO(3,3-F2-1-CF3)}-[Pro(trans-4-F)][Gly(cPr)][NMe(hhhLys)]L[X4]; lactam 3-C) |  | 70 | 13400 | 80 |  |  | 370 | 20 | 60 |
| COc1ncc(Cl)cc1C[C@H]1C(=O)NCCCCCCC[C@H](N(C)C(=O)[C@@H](NC(=O)[C@@H]2C[C@@H](F)CN2C(=O)[C@@]2(C(F)(F)F)CCCCO2)C2CC2)C(=O)N[C@@H](CC(C)C)C(=O)N1C [Example 274] ({Oxane2carbonyl(2R-CF3)}-[Pro(trans-4-F)][Gly(cPr)][NMe(hhhLys)]L[NMe3Pal(2-OMe,5-Cl)]; lactam 3-C) |  | 10 | 10500 | 10 |  |  | 100 | 20 | 30 |
| CC(C)C[C@@H]1NC(=O)[C@@H](N(C)C(=O)[C@@H](NC(=O)[C@@H]2C[C@@H](F)CN2C(=O)C2(C(F)(F)F)CC(F)(F)C2)C2CC2)CCCCCCCNC(=O)[C@H](Cc2cc(Cl)ccc2-c2cccnc2)N(C)C1=O [Example 276] ({cBuCO(3,3-F2-1-CF3)}-[Pro(trans-4-F)][Gly(cPr)][NMe(hhhLys)]L[X66]; lactam 3-C) |  | 20 | 23400 | 20 |  |  | 700 | 20 | 30 |
| CC(C)C[C@@H]1NC(=O)[C@@H](N(C)C(=O)[C@@H](NC(=O)[C@@H]2C[C@@H](F)CN2C(=O)[C@@]2(C(F)(F)F)CCCCO2)C2CC2)CCCCCCCN(C)C(=O)[C@H](Cc2cc(Cl)ccc2-c2cnn(S(=O)(=O)C3CC3)c2)N(C)C1=O [Example 283] ({Oxane2carbonyl(2R-CF3)}-[Pro(trans-4-F)][Gly(cPr)][NMehhhLys(Me)]L[X42]; lactam 3-C) |  | 10 | 14200 | 10 |  |  | 180 | 20 | 30 |
